Test results reported in article PMC3674157 (European journal of medicinal chemistry, 2013).

Tests used:
Type in all cases: cell-based
[1] = system: HeLa human cervical carcinoma cells; assay: High-content analysis of mitotic arrest in HeLa cells; settings: for MDEC Nuclear condensation / MDEC Tubulin intensity: HCS assay, minimum detectable effective concentration; for mitotic arrest phenotype (immunostaining of α-tubulin, phosphohistone H3, Hoechst 33342): 1a 62 nM, 2c 940 nM, 3a 470 nM
[2] = system: MDA-MB-231 human breast cancer cells; assay: Wound healing; settings: three different concentrations
[3] = system: REH human acute lymphoblastic leukemia cells; assay: REH cytotoxicity, MTT assay; settings: REH and JURKAT versus NIH3T3, HUVEC

**Q.** `COc1cc(C(=O)/C=C/c2ccc3ccccc3c2)ccc1O` [Compound 2b, (2e)-3-(2-naphthyl)-1-(3'-methoxy-4'-hydroxy-phenyl)-2-propen-1-one] was tested. Which “MDEC Nuclear condensation” value [1] did it give?
**A.** The value was 2,200 ± 700 nM.

**Q.** What about the “MDEC Tubulin intensity” value [1] of the same compound?
**A.** Its value is 1,100 ± 200 nM.

**Q.** For `COc1ccc(/C=C/C(=O)c2ccc3c(c2)OCO3)c(OC)c1OC` [Compound 2d, (2E)-1-(1’,3’-benzodioxol-5-yl)-3-(2,3,4-trimethoxyphenyl)-2-propen-1-one], which “MDEC Nuclear condensation” value [1] is on record?
**A.** The value was >50,000 nM.

**Q.** What about the “MDEC Tubulin intensity” value [1] of the same compound?
**A.** The value was >50,000 nM.

**Q.** For `COc1cc2c(c(OC)c1OC)-c1ccc(OC)c(=O)cc1[C@@H](NC(C)=O)CC2` [Compound 1a, colchicine, reference compound], which “mitotic arrest phenotype (immunostaining of α-tubulin, phosphohistone H3, Hoechst 33342)” value [1] is on record?
**A.** The value was “tubulin disorganization, increased number of phosphohistone H3-positive cells, chromatin condensation, and nuclear fragmentation”.

**Q.** What about the “MDEC Nuclear condensation” value [1] of the same compound?
**A.** The value was 12.0 ± 4.8 nM.

**Q.** What about the “MDEC Tubulin intensity” value [1] of the same compound?
**A.** The value was 10.2 ± 3.8 nM.

**Q.** And the “cell migration in the scratch wound assay” value [2]?
**A.** Its value is “significantly inhibited cell migration”.

**Q.** What does the source list for `COc1cc(C(=O)/C=C/c2ccc3ccccc3c2)cc(OC)c1OC` [Compound 2c, (2E)-1-(3’,4’,5’-trimethoxyphenyl)-3-(2-naphthyl)-2-propen-1-one]?
**A.** selectivity, nontransformed cells (NIH3T3, HUVEC, PBMC) compared with the two human tumor cell lines [3]: 45 – 100 fold; mitotic arrest phenotype (immunostaining of α-tubulin, phosphohistone H3, Hoechst 33342) [1]: tubulin disorganization, increased number of phosphohistone H3-positive cells, chromatin condensation, and nuclear fragmentation; MDEC Nuclear condensation [1]: 317 ± 23 nM; MDEC Tubulin intensity [1]: 283 ± 52 nM; cell migration in the scratch wound assay [2]: significantly inhibited cell migration

**Q.** Which results are given for `O=C(/C=C/c1ccccc1)c1ccccc1` [Compound 2a, 1,3-diphenylprop-2-en-1-one]?
**A.** MDEC Nuclear condensation [1]: >50,000 nM; MDEC Tubulin intensity [1]: >50,000 nM

**Q.** Which “selectivity, nontransformed cells (NIH3T3, HUVEC, PBMC) compared with the two human tumor cell lines” value [3] does the source give for `COc1cc(C(=O)/C=C/c2ccc(N(C)C)cc2)cc(OC)c1OC` [Compound 3a, (2E,Z)-1-(3’,4’,5’-trimethoxyphenyl)-3-(4-dimethylaminophenyl)-2-propen-1-one] here?
**A.** The value was 45 – 100 fold.

**Q.** And the “mitotic arrest phenotype (immunostaining of α-tubulin, phosphohistone H3, Hoechst 33342)” value [1]?
**A.** Its value is “tubulin disorganization, increased number of phosphohistone H3-positive cells, chromatin condensation, and nuclear fragmentation”.

**Q.** And the “MDEC Nuclear condensation” value [1]?
**A.** The value was 217 ± 67 nM.

**Q.** What about the “MDEC Tubulin intensity” value [1] of the same compound?
**A.** The value was 139 ± 13 nM.

**Q.** What about the “cell migration in the scratch wound assay” value [2] of the same compound?
**A.** The value was “significantly inhibited cell migration”.
